Columns and labels:
Type in all cases: cell-based, human
ADAR1a-p150 = test: Quantification of ADAR1a-p150 mRNA expression by real-time PCR in SH-SY5Y cells; settings: IFNα application during 24 hours
Procedure: (§1) The SH-SY5Y Human neuroblastoma cell line was purchased from ECACC (ref 94030304, lot number 06H021). Cells were cultured in high glucose D-MEM medium (Sigma, ref D6546) supplemented with 10% dialysed FCS (PAA, ref A15-507, lot number A50708-0050), 2 mM Glutamine (Sigma, G7513) and a 1× mix of Antibiotic-Antimycotic Stabilized (Sigma, ref A5955) at 37° C. under a humidified atmosphere of 5% CO2. The day preceding hIFNα treatment, SH-SY5Y cells were plated in 8 different 6-well plates at a density of 7.10^5 cells/well. […]
In order to quantify levels of ADAR1a mRNA expression in SH-SY5Y cells first-strand cDNA was synthesized by reverse transcription (as described above) and subjected to TaqMan quantitative Real-Time PCR analysis (Applied Biosystems,). The probe and primers used for the quantitative PCRs were from Applied Biosystems (Gene Expression Assays, Assay-On-Demand): • -ADAR1a: ref Hs 01020780_ml
Human GAPDH (product no. 4326317E; Applied Biosystems) was included in each multiplex PCR as an internal control. […] Quantitation of target gene expression in all samples was normalized to GAPDH expression by the equation Ct (target)−Ct (GAPDH)=ΔCt, where Ct is the threshold cycle number. The mean ΔCt value of samples from untreated cells was determined and used as a reference point for the samples corresponding to IFNα treated cells. […]

PDE8A pre-mRNA = PDE8A pre-mRNA editing profile by nested RT-PCR and CE-SSCP in SH-SY5Y cells; settings: increased concentrations of IFNα, 48 hours
Procedure: The SH-SY5Y Human neuroblastoma cell line was purchased from ECACC (ref 94030304, lot number 06H021). Cells were cultured in high glucose D-MEM medium (Sigma, ref D6546) supplemented with 10% dialysed FCS (PAA, ref A15-507, lot number A50708-0050), 2 mM Glutamine (Sigma, G7513) and a 1× mix of Antibiotic-Antimycotic Stabilized (Sigma, ref A5955) at 37° C. under a humidified atmosphere of 5% CO2. The day preceding hIFNα treatment, SH-SY5Y cells were plated in 8 different 6-well plates at a density of 7.10^5 cells/well. On the next day, culture medium was removed and cells were incubated for 48 hours with hIFNα at the correct concentration (PBL biomedical laboratories, ref 111001-1, lot number 3734). On the day of the experiment, the hIFNα stock solution (10^5 I.U/ml in sterile 1×D-PBS stocked at −80° C.) was thawed on ice and then extemporaneously diluted in D-MEM supplemented with FCS and Antibiotic-Antimycotic, at the final concentrations of […]. In each well, cells were treated with 2 ml of the working solution. Aliquots of the stock-solution were used only once. […]
Human total blood RNA was extracted with the PAXgene Blood RNA kit 50 (PreAnalytiX, ref 762174) according to manufacturer's instructions. […] Aliquots (5 μl) of the amplification products were used to check the quantity and the quality of amplicons on a 2% agarose analytic gel. […]

[1] = tested on: PDE8A4 isoform of the protein; test: Western blot analysis of PDE8A protein concentrations in SH-SY5Y cells after IFNα; settings: IFNα application during 24 hours
Procedure: as §1
After culture medium elimination, SH-SY5Y cells were washed two times with a phosphate buffer solution (PBS, Gibco Invitrogen Corporation), scraped and solubilized for 2 hr at 4° C. in solubilization buffer containing 150 mM NaCl, 5 mM EDTA, 1% Triton X-100, 0.1% sodium deoxycholate, 10 mM Tris-HCl [pH 8.0] and supplemented with protease inhibitors (1 mM phenylmethylsulfonyl fluoride, and one tablet of Complete™ mini protease inhibitors cocktail [Roche]). […] Proteins present in the supernatant (clear lysate) were quantified with a Qubit Fluorometer (Invitrogen, Q32857) and the Quant-IT Protein assay (Invitrogen, ref Q33211). […]

In the case of interferon alpha [IFNα], the “RQ versus GAPDH of the ADAR1a-p150” value (ADAR1a-p150) is reported as “induced”, the “proportions of isoform B in the editing profile of PDE8A RNA” value (PDE8A pre-mRNA) is reported as “relative increase” and the “maximal effect on PDE8A4 isoform, % of the steady state concentration found in controls” value ([1]; from best fit) is reported as −47%. The “estimated EC 50% of the effect on PDE8A4 isoform concentration versus concentrations of IFNα” value ([1]; western blot, ±SD, R^2 of the fit=0.7) was 3.3±4.4 IU/ml.
